Test results published in patent US8981047B2 (Indiana University Research and Technology Corporation, priority 2007, dated 2015).
Each block holds one compound with its values, some of them ahead of it. Square brackets hold non-standard residues; d marks the D form. Peptide text beside a SMILES is read from it. Abu(4-SO3H) = N[C@@H](CCS(=O)(=O)O)C(=O)O; PhLac = O=C(O)[C@@H](O)Cc1ccccc1

Assays:
GLP-1 receptor = GLP-1 receptor (Homo sapiens, UniProt P43220); test: cAMP induction, firefly luciferase reporter assay in HEK293 cells; format: cell-based; conditions: Table 13; cells expressing the human GLP-1 receptor
glucagon receptor [1] = target: T1, glucagon receptor (Homo sapiens, UniProt P47871); test: cAMP inhibition (antagonism of glucagon-induced cAMP production); format: cell-based; parameters: expressed in transfected cells; host or cells: HEK293; conditions: Tables 5-12 and FIGS. 4, 5, 7, 8
glucagon receptor [2] = target: T1, glucagon receptor; test: cAMP induction, firefly luciferase reporter assay in HEK293 cells; format: cell-based; parameters: expressed in transfected cells; host or cells: HEK293; conditions: read-out: cAMP Induction Glucagon Receptor EC50; Table 2
glucagon receptor [3] = target: T1, glucagon receptor; test: Glucagon receptor binding assay (scintillation proximity competition with 125I-glucagon); conditions: 6-29 shortened glucagon amide backbone

T1 sequence (P47871 26-477): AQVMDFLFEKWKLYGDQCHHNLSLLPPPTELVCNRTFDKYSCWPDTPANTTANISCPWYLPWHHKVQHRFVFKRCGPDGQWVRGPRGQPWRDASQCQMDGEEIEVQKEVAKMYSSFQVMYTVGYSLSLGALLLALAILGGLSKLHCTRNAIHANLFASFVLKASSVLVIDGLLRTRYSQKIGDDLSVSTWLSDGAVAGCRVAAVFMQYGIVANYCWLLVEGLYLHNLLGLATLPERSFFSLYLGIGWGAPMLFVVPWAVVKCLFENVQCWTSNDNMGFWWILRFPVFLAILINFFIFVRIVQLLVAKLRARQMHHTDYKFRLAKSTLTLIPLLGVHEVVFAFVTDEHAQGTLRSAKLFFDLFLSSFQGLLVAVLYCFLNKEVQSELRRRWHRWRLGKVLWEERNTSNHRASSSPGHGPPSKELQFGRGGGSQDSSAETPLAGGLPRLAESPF
Chain of GLP-1 receptor (P43220 24-463): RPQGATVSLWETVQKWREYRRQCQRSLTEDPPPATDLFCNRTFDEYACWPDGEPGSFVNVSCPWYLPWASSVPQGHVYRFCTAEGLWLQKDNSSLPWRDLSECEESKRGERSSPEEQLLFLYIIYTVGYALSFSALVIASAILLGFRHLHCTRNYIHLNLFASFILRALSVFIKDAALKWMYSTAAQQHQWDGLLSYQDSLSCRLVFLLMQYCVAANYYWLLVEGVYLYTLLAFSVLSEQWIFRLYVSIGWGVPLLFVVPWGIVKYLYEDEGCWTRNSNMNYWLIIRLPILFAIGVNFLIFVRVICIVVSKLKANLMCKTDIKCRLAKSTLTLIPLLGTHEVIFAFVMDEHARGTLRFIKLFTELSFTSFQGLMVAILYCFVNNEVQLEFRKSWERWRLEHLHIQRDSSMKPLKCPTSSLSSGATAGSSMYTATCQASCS

Compound: CSCC[C@H](NC(=O)[C@H](CC(C)C)NC(=O)[C@H](Cc1c[nH]c2ccccc12)NC(=O)[C@H](CCC(N)=O)NC(=O)[C@@H](NC(=O)[C@H](Cc1ccccc1)NC(=O)[C@H](CC(=O)O)NC(=O)[C@H](CCC(N)=O)NC(=O)[C@H](C)NC(=O)[C@H](CCCNC(=N)N)NC(=O)[C@H](CCCNC(=N)N)NC(=O)[C@H](CO)NC(=O)[C@H](CC(=O)O)NC(=O)[C@H](CC(C)C)NC(=O)[C@H](Cc1ccc(O)cc1)NC(=O)[C@H](CCCCN)NC(=O)[C@H](CO)NC(=O)[C@H](Cc1ccc(O)cc1)NC(=O)[C@H](CCC(=O)O)NC(=O)[C@H](CO)NC(=O)[C@@H](NC(=O)[C@@H](O)Cc1ccccc1)[C@@H](C)O)C(C)C)C(=O)N[C@@H](CC(N)=O)C(=O)N[C@H](C(N)=O)[C@@H](C)O [[PLA6, E9]Glucagon(aa6-29)-NH2] (H-[PhLac]TSEYSKYLDSRRAQDFVQWLMNT-NH2)
GLP-1 agonism EC50 (GLP-1 receptor): No agonism

Compound: CC(C)C[C@H](NC(=O)[C@H](Cc1ccc(O)cc1)NC(=O)[C@H](CCCCN)NC(=O)[C@H](CO)NC(=O)[C@H](Cc1ccc(O)cc1)NC(=O)[C@H](CCS(=O)(=O)O)NC(=O)[C@H](CO)NC(=O)[C@@H](NC(=O)[C@H](Cc1ccccc1)NC(=O)[C@@H](NC(=O)[C@H](CC(C)C)NC(=O)[C@H](CCC(N)=O)NC(=O)[C@@H](N)CO)[C@@H](C)O)[C@@H](C)O)C(=O)N[C@@H](CC(=O)O)C(=O)N[C@@H](CO)C(=O)N[C@@H](CCCNC(=N)N)C(=O)N[C@@H](CCCNC(=N)N)C(=O)N[C@@H](C)C(=O)N[C@@H](CCC(N)=O)C(=O)N[C@@H](CC(=O)O)C(=O)N[C@@H](Cc1ccccc1)C(=O)N[C@H](C(=O)N[C@@H](CCC(N)=O)C(=O)N[C@@H](Cc1ccccc1)C(=O)N[C@@H](CC(C)C)C(=O)N[C@@H](CC(C)C)C(=O)N[C@@H](CC(N)=O)C(=O)N[C@H](C(N)=O)[C@@H](C)O)C(C)C [[desHis^1, Leu^4, hCys^9(SO3-), Phe^25, Leu^27] Glucagon-NH2] (H-SQLTFTS[Abu(4-SO3H)]YSKYLDSRRAQDFVQFLLNT-NH2; N-terminus assumed)
glucagon antagonism in the cAMP bioassay, result in words (glucagon receptor [1]): some level of antagonism

Compound: CC(C)C[C@H](NC(=O)[C@H](Cc1ccc(O)cc1)NC(=O)[C@H](CCCCN)NC(=O)[C@H](CO)NC(=O)[C@H](Cc1ccc(O)cc1)NC(=O)[C@H](CCS(=O)(=O)O)NC(=O)[C@H](CO)NC(=O)[C@@H](NC(=O)[C@@H](NC(=O)CNC(=O)[C@H](CCC(N)=O)NC(=O)[C@@H](N)CO)[C@@H](C)O)[C@@H](C)O)C(=O)N[C@@H](CC(=O)O)C(=O)N[C@@H](CO)C(=O)N[C@@H](CCCNC(=N)N)C(=O)N[C@@H](CCCNC(=N)N)C(=O)N[C@@H](C)C(=O)N[C@@H](CCC(N)=O)C(=O)N[C@@H](CC(=O)O)C(=O)N[C@@H](Cc1ccccc1)C(=O)N[C@H](C(=O)N[C@@H](CCC(N)=O)C(=O)N[C@@H](Cc1ccccc1)C(=O)N[C@@H](CC(C)C)C(=O)N[C@@H](CC(C)C)C(=O)N[C@@H](CC(N)=O)C(=O)N[C@H](C(N)=O)[C@@H](C)O)C(C)C [[desHis^1, desPhe^6, hCys^9(SO3-), Phe^25, Leu^27] Glucagon-NH2] (H-SQGTTS[Abu(4-SO3H)]YSKYLDSRRAQDFVQFLLNT-NH2; N-terminus assumed)
glucagon antagonism in the cAMP bioassay, result in words (glucagon receptor [1]): some level of antagonism

Compound: Oxyntomodulin C24 PEG 20 K
EC50 (glucagon receptor [2]): 0.97 ± 0.04 nM

Compound: PLA6 analog: native glucagon with first 5 residues deleted and N-terminal amino group of Phe replaced with hydroxyl (phenyl-lactic acid); SEQ ID NO: 39
increase of affinity for the glucagon receptor relative to the native Phe6 analog (glucagon receptor [3]): threefold

Second part, led by results:

glucagon antagonism in the cAMP bioassay, result in words (glucagon receptor [1]): full antagonists
Compound: CSCC[C@H](NC(=O)[C@H](CC(C)C)NC(=O)[C@H](Cc1c[nH]c2ccccc12)NC(=O)[C@H](CCC(N)=O)NC(=O)[C@@H](NC(=O)[C@H](Cc1ccccc1)NC(=O)[C@H](CC(=O)O)NC(=O)[C@H](CCC(N)=O)NC(=O)[C@H](C)NC(=O)[C@H](CCCNC(=N)N)NC(=O)[C@H](CCCNC(=N)N)NC(=O)[C@H](CO)NC(=O)[C@H](CC(=O)O)NC(=O)[C@H](CC(C)C)NC(=O)[C@H](Cc1ccc(O)cc1)NC(=O)[C@H](CCCCN)NC(=O)[C@H](CO)NC(=O)[C@H](Cc1ccc(O)cc1)NC(=O)[C@H](CCS(=O)(=O)O)NC(=O)[C@H](CO)NC(=O)[C@@H](NC(=O)[C@H](Cc1ccccc1)NC(=O)[C@@H](NC(=O)CN)[C@@H](C)O)[C@@H](C)O)C(C)C)C(=O)N[C@@H](CC(N)=O)C(=O)N[C@H](C(N)=O)[C@@H](C)O [[hCys^9(SO3H)]Glucagon(aa4-29)-NH2, [hCys(SO3H)9]glucagon (4-29) amide] (H-GTFTS[Abu(4-SO3H)]YSKYLDSRRAQDFVQWLMNT-NH2; N-terminus assumed)

glucagon antagonism in the cAMP bioassay, result in words (glucagon receptor [1]; listed as 5-29 hCys(SO3H)^9): full antagonists
Compound: CSCC[C@H](NC(=O)[C@H](CC(C)C)NC(=O)[C@H](Cc1c[nH]c2ccccc12)NC(=O)[C@H](CCC(N)=O)NC(=O)[C@@H](NC(=O)[C@H](Cc1ccccc1)NC(=O)[C@H](CC(=O)O)NC(=O)[C@H](CCC(N)=O)NC(=O)[C@H](C)NC(=O)[C@H](CCCNC(=N)N)NC(=O)[C@H](CCCNC(=N)N)NC(=O)[C@H](CO)NC(=O)[C@H](CC(=O)O)NC(=O)[C@H](CC(C)C)NC(=O)[C@H](Cc1ccc(O)cc1)NC(=O)[C@H](CCCCN)NC(=O)[C@H](CO)NC(=O)[C@H](Cc1ccc(O)cc1)NC(=O)[C@H](CCS(=O)(=O)O)NC(=O)[C@H](CO)NC(=O)[C@@H](NC(=O)[C@H](Cc1ccccc1)NC(=O)[C@@H](N)[C@@H](C)O)[C@@H](C)O)C(C)C)C(=O)N[C@@H](CC(N)=O)C(=O)N[C@H](C(N)=O)[C@@H](C)O [[hCys^9(SO3H)]Glucagon(aa5-29)-NH2, [hCys(SO3H)9]glucagon (5-29) amide] (H-TFTS[Abu(4-SO3H)]YSKYLDSRRAQDFVQWLMNT-NH2; N-terminus assumed)
glucagon antagonism in the cAMP bioassay, result in words (glucagon receptor [1]; listed as 5-29 hCys9): pure potent antagonism, without any measurable agonist activity | glucagon antagonism in the cAMP bioassay, result in words (glucagon receptor [1]; listed as 5-29 hCys9-based glucagon antagonist): more potent and effective than the literature standards

glucagon antagonism in the cAMP bioassay, result in words (glucagon receptor [1]; listed as 6-29 hCys(SO3H)^9): full antagonists
Compound: CSCC[C@H](NC(=O)[C@H](CC(C)C)NC(=O)[C@H](Cc1c[nH]c2ccccc12)NC(=O)[C@H](CCC(N)=O)NC(=O)[C@@H](NC(=O)[C@H](Cc1ccccc1)NC(=O)[C@H](CC(=O)O)NC(=O)[C@H](CCC(N)=O)NC(=O)[C@H](C)NC(=O)[C@H](CCCNC(=N)N)NC(=O)[C@H](CCCNC(=N)N)NC(=O)[C@H](CO)NC(=O)[C@H](CC(=O)O)NC(=O)[C@H](CC(C)C)NC(=O)[C@H](Cc1ccc(O)cc1)NC(=O)[C@H](CCCCN)NC(=O)[C@H](CO)NC(=O)[C@H](Cc1ccc(O)cc1)NC(=O)[C@H](CCS(=O)(=O)O)NC(=O)[C@H](CO)NC(=O)[C@@H](NC(=O)[C@@H](N)Cc1ccccc1)[C@@H](C)O)C(C)C)C(=O)N[C@@H](CC(N)=O)C(=O)N[C@H](C(N)=O)[C@@H](C)O [[hCys^9(SO3H)]Glucagon(aa6-29)-NH2] (H-FTS[Abu(4-SO3H)]YSKYLDSRRAQDFVQWLMNT-NH2)
glucagon antagonism in the cAMP bioassay, result in words (glucagon receptor [1]; listed as 6-29 hCys9): pure potent antagonism, without any measurable agonist activity
